Reference: publication PMC7587356, “High-Throughput Screening for Inhibitors of the SARS-CoV-2 Protease Using a FRET-Biosensor” (Molecules, 2020)
Where a name gives a salt, the structure may show the parent alone. Read-outs that look alike come from different tables or passages of the source.

Tests used:
[1] = target: T1, SARS-CoV-2 3CLpro (Severe acute respiratory syndrome coronavirus 2, UniProt P0DTD1); assay: biochemical; type: biochemical
[2] = target: T1, SARS-CoV-2 3CLpro; assay: biochemical; type: biochemical; design: Replicate_1 / Replicate_2 / mean / mean (LOPAC_screen_w_protease): unit not given here
[3] = with 0.01% Triton X-100; mean ± SD of triplicate; 4 h, 30 °C; read-out: A) EC50 with Triton X-100
[4] = without Triton X-100; mean ± SD of triplicate; 4 h, 30 °C; read-out: B) EC50 without Triton X-100
[5] = sheet LOPAC_screen_w_protease, primary screen with protease, mean of two replicates
[6] = sheet LOPAC_screen_w_protease, primary screen with protease, replicate 1
[7] = sheet LOPAC_screen_w_protease, primary screen with protease, replicate 2

Question: What does the source list for `Oc1cc2c(c(Cl)c1O)CCNCC2c1ccccc1` (racemic) [(±)-6-Chloro-PB]?
Answer: Ratio (A/B) [1]: 1.4; EC50 [1, 3]: 1440 ± 353 nM; EC50 [1, 4]: 1020 ± 289 nM

Question: Which results are given for `Oc1cc2c(cc1O)[C@H]1c3ccccc3CN[C@@H]1CC2` (racemic) [Dihydrexidine]?
Answer: Ratio (A/B) [1]: 1.1; EC50 [1, 3]: 705 ± 153 nM; EC50 [1, 4]: 622 ± 72 nM

Question: How did the EC50 [1, 3] turn out when `C=CCN1CCc2cc(O)c(O)cc2C(c2ccccc2)C1` (racemic) [N-allyl-(±)-SKF 38393] was run?
Answer: 3340 ± 805 nM

Question: What about the EC50 [1, 4] of the same molecule?
Answer: 1650 ± 462 nM

Question: How did the EC50 [1, 3] turn out when `Oc1ccc(Cn2cc[nH]c2=S)cc1` [1-Hbit] was run?
Answer: 7080 ± 5150 nM

Question: And the EC50 [1, 4]?
Answer: > 20000 nM

Question: For `N=c1c[n+](N2CCOCC2)[n-]o1` [3-Morpholinosydnonimine], which “Ratio (A/B)” value [1] is on record?
Answer: 1.1

Question: What about the EC50 [1, 3] of the same molecule?
Answer: 5660 ± 445 nM

Question: What about the EC50 [1, 4] of the same molecule?
Answer: 4970 ± 2380 nM

Question: Which results are given for `NC1CCc2cc(O)c(O)cc2C1` (stereo not shown) [6,7-ADTN]?
Answer: Ratio (A/B) [1]: 1.1; EC50 [1, 3]: 2380 ± 257 nM; EC50 [1, 4]: 2120 ± 727 nM

Question: With `Oc1cc(O)c2c(c1)O[C@H](c1ccc(O)c(O)c1)[C@@H](O)C2` [(+)-Catechin] as the molecule, how does the EC50 [1, 3] read?
Answer: > 20000 nM

Question: What about the EC50 [1, 4] of the same molecule?
Answer: 11300 ± 6550 nM

Question: `CN1CC[C@@]2(C)c3cc(O)ccc3N(C)[C@@H]12` [(−)-Eseroline] was tested. Which “Ratio (A/B)” value [1] did it give?
Answer: 1.3

Question: What about the EC50 [1, 3] of the same molecule?
Answer: 994 ± 197 nM

Question: And the EC50 [1, 4]?
Answer: 738 ± 201 nM

Question: What does the source list for `NC[C@@H]1O[C@H](C23CC4CC(CC(C4)C2)C3)Cc2c1ccc(O)c2O` [A-77636]?
Answer: Ratio (A/B) [1]: 1.6; EC50 ([1]; read-out: A) EC50 with Triton X-100): 3790 ± 630 nM; EC50 ([1]; read-out: B) EC50 without Triton X-100): 2340 ± 783 nM

Question: With `N.S=C(S)N1CCCC1` [APDC] as the molecule, how does the “Ratio (A/B)” value [1] read?
Answer: 0.8

Question: And the EC50 [1, 3]?
Answer: 1230 ± 64 nM

Question: What about the EC50 [1, 4] of the same molecule?
Answer: 1520 ± 697 nM

Question: Which EC50 ([1]; A) EC50 with Triton X-100) does the source give for `O=C(O)/C=C/c1ccc(O)c(O)c1` [Caffeic Acid] here?
Answer: > 20000 nM

Question: What about the EC50 ([1]; B) EC50 without Triton X-100) of the same molecule?
Answer: 5390 ± 1230 nM

Question: `O=C(O)Cc1ccc(O)c(O)c1` [DOPAC] was tested. Which “Ratio (A/B)” value [1] did it give?
Answer: 1.3

Question: What about the EC50 [1, 3] of the same molecule?
Answer: 3090 ± 226 nM

Question: What about the EC50 [1, 4] of the same molecule?
Answer: 2460 ± 117 nM

Question: How did the mean ([2]; sheet LOPAC_screen_w_protease, LOPAC1280 primary screen with protease, 5 µM compound, mean of the two replicates) turn out when `CC(N)Cc1c[nH]c2ccc(O)cc12.O=C(O)/C=C\C(=O)O` (stereo not drawn) [alpha-Methyl-5-hydroxytryptamine maleate] was run?
Answer: 6.214

Question: And the Replicate_1 ([2]; sheet LOPAC_screen_w_protease, LOPAC1280 primary screen with protease, 5 µM compound, replicate 1)?
Answer: 5.086

Question: And the Replicate_2 ([2]; sheet LOPAC_screen_w_protease, LOPAC1280 primary screen with protease, 5 µM compound, replicate 2)?
Answer: 7.342

Question: How did the mean [2, 5] turn out when `Cl.N[C@@H](CCl)C(=O)O` [beta-Chloro-L-alanine hydrochloride] was run?
Answer: 2.368

Question: What about the Replicate_1 [2, 6] of the same molecule?
Answer: 2.376

Question: What about the Replicate_2 [2, 7] of the same molecule?
Answer: 2.361

Question: Which results are given for `CC1(C)CCC2=C(O1)c1ccccc1C(=O)C2=O` [beta-Lapachone]?
Answer: inhibition at 5 µM ([2]; 4 h, read-out: Replicate_1): 0.593%; inhibition at 5 µM ([2]; 4 h, read-out: Replicate_2): 0.52%; inhibition at 5 µM ([2]; 4 h, read-out: mean): 0.557%

Question: What does the source list for `NC/C=C\C(=O)O` [cis-4-Aminocrotonic acid]?
Answer: mean [2, 5]: 2.546; Replicate_1 [2, 6]: 3.312; Replicate_2 [2, 7]: 1.781

Question: With `OCCN1CCN(CC/C=C2/c3ccccc3Sc3ccc(C(F)(F)F)cc32)CC1` [cis-(Z)-Flupenthixol dihydrochloride] as the molecule, how does the inhibition at 5 µM ([2]; 4 h, sheet LOPAC_screen_w_protease, primary screen with protease, mean of two replicates, read-out: mean) read?
Answer: 2.17%

Question: What about the inhibition at 5 µM ([2]; 4 h, sheet LOPAC_screen_w_protease, primary screen with protease, replicate 1, read-out: Replicate_1) of the same molecule?
Answer: 2.7%

Question: What about the inhibition at 5 µM ([2]; 4 h, sheet LOPAC_screen_w_protease, primary screen with protease, replicate 2, read-out: Replicate_2) of the same molecule?
Answer: 1.63%

Question: For `O=C(O)[C@@H]1C[C@H](C(=O)O)N1` [cis-Azetidine-2,4-dicarboxylic acid], which “mean (LOPAC_screen_w_protease)” value ([2]; LOPAC1280 primary screen with protease, 5 µM compound, mean of two replicates) is on record?
Answer: 1.501

Question: And the “Replicate_1 (LOPAC_screen_w_protease)” value ([2]; LOPAC1280 primary screen with protease, 5 µM compound, replicate 1)?
Answer: 1.545

Question: And the “Replicate_2 (LOPAC_screen_w_protease)” value ([2]; LOPAC1280 primary screen with protease, 5 µM compound, replicate 2)?
Answer: 1.457

Question: With `O=C1c2c(O)cc(O)cc2O[C@H](c2ccc(O)c(O)c2)[C@H]1O` [dihydroquercetin, reference compound] as the molecule, how does the “inhibition of 3CLpro in the primary screen” value ([2]; 5 µM compound, 0.01% Triton X-100, 4 h endpoint, duplicate mean) read?
Answer: 7.5%

Question: How did the mean [2, 5] turn out when `C#CC(N)CCC(=O)O` (stereo not shown) [gamma-Acetylinic GABA] was run?
Answer: 2.242

Question: And the Replicate_1 [2, 6]?
Answer: 2.252

Question: And the Replicate_2 [2, 7]?
Answer: 2.232

Question: Which mean ([2]; sheet LOPAC_screen_w_protease, LOPAC1280 at 5 µM, mean of two replicates) does the source give for `N[C@H](CCC(=O)NCS(=O)(=O)O)C(=O)O` [gamma-D-Glutamylaminomethylsulfonic acid] here?
Answer: 1.223

Question: And the Replicate_1 ([2]; sheet LOPAC_screen_w_protease, LOPAC1280 at 5 µM, replicate 1)?
Answer: 4.708

Question: What about the Replicate_2 ([2]; sheet LOPAC_screen_w_protease, LOPAC1280 at 5 µM, replicate 2) of the same molecule?
Answer: -2.2619

Question: How did the inhibition at 5 µM ([2]; 4 h, sheet LOPAC_screen_w_protease, LOPAC1280 at 5 µM, mean of two replicates, read-out: mean) turn out when `CC(C(=O)O)c1ccc(CC2CCCC2=O)cc1` (stereo not shown) [loxoprofen] was run?
Answer: 1.2%

Question: What about the inhibition at 5 µM ([2]; 4 h, sheet LOPAC_screen_w_protease, LOPAC1280 at 5 µM, replicate 1, read-out: Replicate_1) of the same molecule?
Answer: 0.313%

Question: And the inhibition at 5 µM ([2]; 4 h, sheet LOPAC_screen_w_protease, LOPAC1280 at 5 µM, replicate 2, read-out: Replicate_2)?
Answer: 2.09%

Question: How did the inhibition at 5 µM ([2]; 4 h, read-out: Replicate_1) turn out when `O=c1cc(-c2ccc(O)c(O)c2)oc2cc(O)cc(O)c12` [luteolin, reference compound] was run?
Answer: 0.919%

Question: What about the inhibition at 5 µM ([2]; 4 h, read-out: Replicate_2) of the same molecule?
Answer: 1.72%

Question: And the inhibition at 5 µM ([2]; 4 h, read-out: mean)?
Answer: 1.32%

Question: What about the inhibition at 5 µM ([2]; read-out: inhibition of 3CLpro in the primary screen) of the same molecule?
Answer: 1.3%
